Assay results: patent publication US12263248B2, “Compounds and compositions for intracellular delivery of therapeutic agents” (ModernaTX, Inc., priority 2018, dated 2025)
Entries after “also recorded” stand apart in the source; their conditions may differ. Marks after values point to notes of the source that are not given here.

What was measured:
[1] = test system: hEPO mRNA; assay: hEPO expression after intramuscular administration to mice; format: in vivo; conditions: for Fold increase in hEPO concentration relative to MC3: mice, 0.01 mpk, 6 hr time point; for Novel lipid/MC3 expression ratio, 6 hr. time point, i.m. hEPO: relative to MC3 formulation; for Novel lipid/MC3 ratio, 6 hr. timepoint, i.m. hEPO: relative to MC3, Table 3G; for Lipid/MC3 6 h timepoint / Lipid/MC3 AUC: Table 3I, hEPO
Method: The expression of hEPO and cytokine induction in mice intravenously administered a nanoparticle composition at a dose of 0.5 mpk were measured at 3, 6, and 24 hours. […] The expression of hEPO in mice intramuscularly administered a nanoparticle composition from Table 1B at a dose of 0.01 mpk were measured at 3, 6, and 24 hours.
Blood collection and analysis for hEPO. Blood was collected from mice or rats via the tail vein and hEPO concentrations were determined using a hEPO ELISA assay.

[2] = test system: luciferase (Luc) mRNA; assay: Luc expression (total flux) after intramuscular administration; format: in vivo, mice; conditions: for Total flux (p/s) 0.01 mpk Dose: Table 5B; for Total flux (p/s) 0.01 mpk Dose / Total flux, 0.001 mpk Dose / Total flux, 0.01 mpk Dose: 6 hours after intramuscular administration; for Novel lipid/MC3 expression ratio, 6 hr. time point, i.m. Luc: relative to MC3 formulation; for i.m. Lipid/MC3 0.01 mpk, Luc, 6 h: Table 3B; for AUC (p/s * h) / Lipid/MC3 AUC: Table 3H, Luc
Outline: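 Total-flux luciferase signal in mice after one intramuscular injection. Nanoparticle formulations contained modified Luc mRNA, either alone or co-dosed with H10 mRNA (e.g., 0.0005 or 0.005 mpk of each), giving 0.001 or 0.01 mpk.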

[3] = test system: luciferase mRNA; assay: Luciferase expression after subcutaneous administration to mice; format: in vivo, female CD-1 mice; conditions: for Novel lipid/MC3 expression ratio, 6 hr. time point, s.c. Luc 0.5 mpk / Novel lipid/MC3 expression ratio, s.c. Luc 0.5 mpk (AUC) / Lipid/MC3 AUC ratio / AUC (luciferase expression): 0.5 mpk; for Lipid/MC3 AUC ratio: luciferase; for AUC (luciferase expression): whole body BLI; for Novel lipid/MC3 ratio, s.c. Luc 6 hr.: relative to MC3, Table 3G
Outline: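 Female CD-1 mice given luciferase mRNA in lipid nanoparticle formulations subcutaneously at 0.5 mpk. Expression read by whole-body bioluminescence imaging at 3, 6 and 24 h, with ex vivo liver, spleen and injection-site luminescence at 24 h.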

[4] = Apparent (surface) pKa of the LNP formulation (TNS assay); format: physicochemical; conditions: for Apparent pKa: Table 3G; for App. pKa: Table 3F
Outline: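 Fluorescence of TNS probe added to LNP samples (mRNA 0.04 mg/mL) was read across 21 buffers of pH about 3-12, triplicate per pH. The inflection point of the sigmoidal fluorescence-vs-pH curve, […], gives apparent pKa; method validated in 1× PBS and Tris/sucrose buffer.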

[5] = test system: hEPO mRNA; assay: hEPO expression after intravenous administration to rats; format: in vivo, rat; conditions: for hEPO expression: rat; for Lipid/MC3 hEPO conc. ratio 0.2 mpk / Lipid/MC3 hEPO conc. ratio 2 mpk: rats; for Lipid/MC3 hEPO expression: 6 hours after administration
Outline: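 Rats dosed intravenously once with nanoparticle composition, 0.2 or 2.0 mpk, formulated by the standard MC3 method. Tail-vein blood sampled at 6 h or at time points from 0.25 to 48 h. hEPO measured by ELISA.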

[6] = 0.001 mpk, Luc mRNA and H10 mRNA
[7] = 0.01 mpk, Luc mRNA and H10 mRNA

SMILES	Fold increase in hEPO concentration relative to MC3 [1]	Total flux (p/s) 0.01 mpk Dose ([2]; 0.01 mpk) [p/s]	Novel lipid/MC3 expression ratio, 6 hr. time point, i.m. Luc ([2]; intramuscular)	Novel lipid/MC3 expression ratio, 6 hr. time point, s.c. Luc 0.5 mpk ([3]; relative to MC3)	pKa ([4]; Table 1A)	Novel lipid/MC3 expression ratio, s.c. Luc 0.5 mpk (AUC) ([3]; relative to MC3)	Lipid/MC3 AUC ratio [3]	AUC (luciferase expression) [3]	Novel lipid/MC3 ratio, s.c. Luc 6 hr. [3]	Total flux, 0.001 mpk Dose [2, 6] [p/s]	Total flux, 0.01 mpk Dose [2, 7] [p/s]	further results
CCCC/C=C\CCC(CC/C=C\CCCC)OC(=O)CCCCCCCN(CCO)CCCCCCCC(=O)OCCCCCCCCC [Compound 60, (5Z,12Z)-Heptadeca-5,12-dien-9-yl 8-((2-hydroxyethyl)(8-(nonyloxy)-8-oxooctyl)amino)octanoate]	11.2	9.48E+07	2.93	1.72	6.73							Novel lipid/MC3 expression ratio, 6 hr. time point, i.m. hEPO [1]: 11.2
CCCCCCCCCOC(=O)CCCCCCCN(CCCCCCCC(=O)OC(CCCCCCCC)CCCCCCCC)CCCNC(=S)N(C)C [Compound 111, Heptadecan-9-yl 8-((3-(3,3-dimethylthioureido)propyl)(8-(nonyloxy)-8-oxooctyl)amino)octanoate]	10.6	1.58E+08	4.88	1.16	7.13							Novel lipid/MC3 expression ratio, 6 hr. time point, i.m. hEPO [1]: 10.6; i.m. Lipid/MC3 0.01 mpk, Luc, 6 h ([2]; 0.01 mpk): 4.9
CCCCCCCCCOC(=O)CCCCCCCN(CCCCCCCC(=O)OC(CCCCCCCC)CCCCCCCC)CCCNS(C)(=O)=O [Compound 109, Heptadecan-9-yl 8-((3-(methylsulfonamido)propyl)(8-(nonyloxy)-8-oxooctyl)amino)octanoate]	5.3	1.18E+08	3.65	0.49	6.78							i.m. Lipid/MC3 0.01 mpk, Luc, 6 h ([2]; 0.01 mpk): 3.6
CCCCCCCCCOC(=O)CCCCCCCN(CCCCCCCC(=O)OC(CCCCCCCC)CCCCCCCC)CCCNC(=O)N(C)C [Compound 110, Heptadecan-9-yl 8-((3-(3,3-dimethylureido)propyl)(8-(nonyloxy)-8-oxooctyl)amino)octanoate]	1.2	1.21E+08	3.74		8.03	(AUC: 0.76)	0.76	1.2968E+10 (p/s) * h	0.78			Novel lipid/MC3 ratio, 6 hr. timepoint, i.m. hEPO [1]: 1.2; Apparent pKa [4]: 8.03
CCCCCCCCC(CC)OC(=O)CCCCCCCN(CCO)CCCCCCCC(=O)OC(CCCCCCCC)CCCCCCCC (centres unmarked) [Compound 49, heptadecan-9-yl 8-((2-hydroxyethyl)(8-oxo-8-(undecan-3-yloxy)octyl)amino)octanoate]			12.99		6.52							Lipid/MC3 6 h timepoint [1]: 11.0; Lipid/MC3 AUC [1]: 9.9; AUC (p/s * h) ([2]; intramuscular): 7.54E+09 p/s * h; Lipid/MC3 AUC ([2]; intramuscular): 12.82; hEPO expression ([5]; intravenous, 0.2 mpk, 6 hours): 3.17e+06 pg/mL; hEPO expression ([5]; intravenous, 2 mpk, 6 hours): 3.04e+07 pg/mL; Lipid/MC3 hEPO conc. ratio 0.2 mpk ([5]; intravenous, 0.2 mpk, 6 hours): 4.13; Lipid/MC3 hEPO conc. ratio 2 mpk ([5]; intravenous, 2 mpk, 6 hours): 3.28
CCCCCCCCC(C)OC(=O)CCCCCN(CCO)CCCCCCCC(=O)OC(CCCCCCCC)CCCCCCCC (centres unmarked) [Compound 122, Heptadecan-9-yl 8-((6-(decan-2-yloxy)-6-oxohexyl)(2-hydroxyethyl)amino)octanoate]	10.7	9.19E+07	2.84		6.83	(AUC: 3.42)	3.42	5.8576E+10 (p/s) * h	4.12			Novel lipid/MC3 ratio, 6 hr. timepoint, i.m. hEPO [1]: 10.7; Novel lipid/MC3 expression ratio, 6 hr. time point, i.m. hEPO [1]: 10.7; Apparent pKa [4]: 6.83
CCCCCCCCC(C)OC(=O)CCCCCCCN(CCO)CCCCCCCC(=O)OC(CCCCCCCC)CCCCCCCC (centres unmarked) [Compound 48, decan-2-yl 8-((8-(heptadecan-9-yloxy)-8-oxooctyl)(2-hydroxyethyl)amino)octanoate]					6.68					4.69E+05	8.78E+06	Lipid/MC3 6 h timepoint [1]: 8.2; Lipid/MC3 AUC [1]: 7.5; Lipid/MC3 hEPO expression ([5]; 0.2 mpk dose to rat): 5.39; Lipid/MC3 hEPO expression ([5]; 2 mpk dose to rat): 3.84; hEPO expression ([5]; intravenous, 0.2 mpk, 6 hours): 4.06e+06 pg/mL; hEPO expression ([5]; intravenous, 2 mpk, 6 hours): 3.57e+07 pg/mL; Lipid/MC3 hEPO conc. ratio 0.2 mpk ([5]; intravenous, 0.2 mpk, 6 hours): 5.39; Lipid/MC3 hEPO conc. ratio 2 mpk ([5]; intravenous, 2 mpk, 6 hours): 3.84
CCCCCCCCCOC(=O)CCCCCCCN(CCCCO)CCCCCCCC(=O)OC(CCCCCCCC)CCCCCCCC [Compound 20, Heptadecan-9-yl 8-((4-hydroxybutyl)(8-(nonyloxy)-8-oxooctyl)amino) octanoate]			2.21		6.87	(AUC: 4.02)	4.02	6.8926E+10 (p/s) * h	4.00	2.59E+07		Luc expression upon intramuscular administration ([2]; Luc mRNA and H10 mRNA, doses of 0.001 and 0.01 mpk, in words): highest expression at both dose levels; also recorded: equivalent expression to the high dose of MC3; fold increase in Luc expression over MC3 formulations ([2]; intramuscular administration, in words): highest fold increase; Fold increase in Luc expression relative to MC3, Intramuscular (0.001 mpk dose) ([2]; intramuscular, 0.001 mpk): 3.70; Fold increase in Luc expression relative to MC3, Intramuscular (0.01 mpk dose) ([2]; intramuscular, 0.01 mpk): 2.21; pKa ([4]; Table 6): 6.87
CCCCCCCCCOC(=O)CCCCCCCN(CCCCCCCC(=O)OC(CCCCCCCC)CCCCCCCC)CCCNC(=S)NC [Compound 113, Heptadecan-9-yl 8-((3-(3-methylthioureido)propyl)(8-(nonyloxy)-8-oxooctyl)amino)octanoate]			1.58		6.93	(AUC: 4.30)	4.30	7.3721E+10 (p/s) * h	4.53			AUC (p/s * h) ([2]; intramuscular): 1.01E+09 p/s * h; Lipid/MC3 AUC ([2]; intramuscular): 1.71
CCCC/C=C\CCC(CC/C=C\CCCC)OC(=O)CCCCCCCN(CCO)CCCCCC(=O)OCCCCCCCCCCC [Compound 61, (5Z,12Z)-heptadeca-5,12-dien-9-yl 8-((2-hydroxyethyl)(6-oxo-6-(undecyloxy)hexyl)amino)octanoate]			3.51	0.70	6.70							AUC (p/s * h) ([2]; intramuscular): 2.30E+09 p/s * h; Lipid/MC3 AUC ([2]; intramuscular): 3.91
CCCCCCCCCN(CCCO)CCCCCCCC(=O)OC(CCCCCCCC)CCCCCCCC [Compound 7, Heptadecan-9-yl 8-((3-hydroxypropyl)(nonyl)amino)octanoate]				2.29	6.75					3.65E+06	7.48E+07	Novel lipid/MC3 expression ratio, 6 hr. time point, s.c. Luc 0.05 mpk ([3]; 0.05 mpk, relative to MC3): 2.40; App. pKa [4]: 6.74
CCCCCCCCCOC(=O)CCCCCCCN(CCO)CCCCCCCCCC(=O)OC(CCCCCCCC)CCCCCCCC [Compound 23, Heptadecan-9-yl 10-((2-hydroxyethyl)(8-(nonyloxy)-8-oxooctyl)amino) decanoate]				1.02	6.84					8.27E+06	2.20E+06	App. pKa [4]: 6.88
CCCCCC/C=C\COC(=O)CCCCCCCN(CCO)CCCCCCCC(=O)OC(CCCCCCCC)CCCCCCCC [Compound 24, Heptadecan-9-yl (Z)-8_((2-hydroxyethyl) (8-(non-2-en-1-yloxy)-8-oxooctyl)amino)octanoate]					6.71	(AUC: 5.21)	5.21	8.9281E+10 (p/s) * h	5.79	3.78E+06	3.97E+07	hEPO expression ([5]; 6 h, 2 mpk, i.v.): 1.44e+07 pg/mL; Lipid/MC3 hEPO conc. ratio 0.2 mpk ([5]; intravenous, 0.2 mpk, 6 hours): 1.75; Lipid/MC3 hEPO conc. ratio 2 mpk ([5]; intravenous, 2 mpk, 6 hours): 1.01
